Results reported in paper PMC10146957, “Systematic Studies on Anti-Cancer Evaluation of Stilbene and Dibenzo[b,f]oxepine Derivatives” (Molecules, 2023).
Read-outs that look alike come from different tables or passages of the source.

Experiments:
HCT116 cells [1] = experiment: MTT cytotoxicity assay, HCT116 cells; assay type: cell-based, human; conditions: for cell viability (in words): 100 μM, 48 h of treatment; for IC50: Homo sapiens, HCT-116, 48 h, mean ± SEM
Protocol: (§1) Cells were cultured in a humidified incubator at 37 °C under 5% CO2. Human colorectal carcinoma (HCT116) cells were grown in McCoy’s 5A Medium (ATCC, Catalog No. 30-2007), human breast adenocarcinoma (MCF-7) and human dermal fibroblasts (HDF-A) cells were maintained in Dulbecco’s Modified Eagle’s Medium (DMEM, Sigma D5546) supplemented with 2 mM L-glutamine. Human embryonic kidney (HEK293) cell line was cultured in Dulbecco’s Modified Eagle’s Medium (DMEM, Gibco 31966-021). All culture media were supplemented with 1% Penicillin-Streptomycin (Sigma-Aldrich, P4333) and 10% fetal bovine serum (Gibco, 10270-106). Cells were sub-cultured at approximately 80–90% confluency to maintain the culture in the logarithmic growth phase.
(§2) Cells were seeded at a 96-well plate at the density of 7 × 10^3 cells per well and allowed to grow for 24 h. Afterward, the medium was aspirated and fresh medium was added (200 μL) with serial dilutions (100 − 10 μM) of tested compounds or DMSO at corresponding concentrations as a control. Following 48 h of incubation, the medium was replaced with phenol red-free medium (100 μL) containing MTT (3-(4,5-dimethylthiazol-2-yl)-2,5-diphenyl-2H-tetrazolium bromide, 0.5 mg/mL) and replaced in the incubator for 4 h. The formed formazan was dissolved in DMSO (100 μL) followed by incubation of the mixture at 37 °C for 10 min. The absorbance was measured at 540 nm. After blank subtraction, the half maximal effective concentration (EC50) was calculated by GraphPad Prism software (GraphPad Software Inc, San Diego, CA, USA).

MCF-7 cells = experiment: MTT cytotoxicity assay, MCF-7 cells; assay type: cell-based; conditions: Homo sapiens, MCF7, 48 h, mean ± SEM
Protocol: as §1, §2

HEK293 cells = experiment: MTT cytotoxicity assay, HEK293 cells; assay type: cell-based; conditions: Homo sapiens, 48 h, mean ± SEM
Protocol: as §1, §2

HCT116 cells [2] = experiment: Immunofluorescence of microtubular network (anti-α-tubulin 12G10); assay type: cell-based, human; conditions: 60 µm of compound, 24 h, anti-α-tubulin staining
Protocol: Cells were seeded on coverslips at a 24-well plate at a density of 5 × 10^4 cells per well and allowed to grow overnight. Next medium was replaced with a medium containing 60 μM solution of the selected compound and incubated for 24 h. Then, cells were fixed and permeabilized with 100% methanol at −20 °C for 15 min and subsequently washed three times with PBS at room temperature. After 1 h blocking with 3% BSA/PBS at 4 °C, slides were incubated with anti-alpha-tubulin 12G10 primary antibody (Developmental Studies Hybridoma Bank, University of Iowa, Iowa City, IA, USA) (diluted to 2 µg/mL in 3% BSA/PBS) overnight at 4 °C. After 3 × 10 min washing with PBS, slides were incubated with AlexaFluor 555-conjugated secondary antibody (diluted to 50 ng/mL in 3% BSA/PBS) (Thermo Fisher Scientific, Waltham, MA, USA, A31570) for 1 h at room temperature. After washing (3 × 10 min with PBS), slides were mounted in Fluoromount-G (Southern Biotech., Birmingham, AL, USA). Cells were recorded using Leica TCS SP8 (Leica Microsystems, Wetzlar, Germany) confocal microscope.

HDF-A cells = experiment: MTT cytotoxicity assay, HDF-A cells; assay type: cell-based; conditions: Homo sapiens, HDFa
Protocol: as §1, §2

[3] = MTT cytotoxicity assay, HCT116 cells; assay type: cell-based, human; conditions: human, HCT116 cells (human colorectal carcinoma), 100 μM, 48 h of treatment, read-out: cell viability
Protocol: as §1, §2

normal cell lines = system: normal cell lines; set-up: method as in PMID 31865147; conditions: cited from earlier work
[4] = system: HeLa (cervical cancer) cells; set-up: method as in PMID 31865147; conditions: cited from earlier work
U87 (glioblastoma) cells = system: U87 (glioblastoma) cells; set-up: method as in PMID 31865147; conditions: cited from earlier work
[5] = set-up: method as in PMID 29318022; conditions: generally well tolerated; cited from earlier work
[6] = MTT, 48 h, mean ± SEM, read-out: HDF-A IC50

## COc1ccc2c(c1)Oc1cc([N+](=O)[O-])ccc1C=C2 [Compound 2c, 3-methoxy-7-nitrodibenzo[b,f]oxepine]
other
  melting point: 189 °C

## O=[N+]([O-])c1ccc2c(c1)Oc1ccccc1C=C2 [Compound 2a, 3-nitrodibenzo[b,f]oxepine]
other
  melting point: 156 °C

## COc1cccc2c1Oc1cc(N)ccc1C=C2 [Compound 3b, 6-methoxydibenzo[b,f]oxepin-3-amine]
HCT116 cells [1]
  cell viability (in words): only minimally affected

## COc1cc2c(cc1OC)Oc1cc(N)ccc1C=C2 [Compound 3f, 7,8-dimethoxydibenzo[b,f]oxepin-3-amine]
HCT116 cells [1]
  cell viability (in words): only minimally affected

## COc1ccc(O)c(/C=C/c2ccc([N+](=O)[O-])cc2[N+](=O)[O-])c1 [Compound 1d, (E)-2-hydroxy-5-methoxy-2′,4′-dinitrostilbene]
MCF-7 cells
  IC50: 47 ± 1 µM
HEK293 cells
  IC50: 33 ± 2 µM
HCT116 cells [2]
  effect on microtubular network: density of the microtubular network was decreased
HDF-A cells; [6]
  IC50: 40 ± 2 µM
[3]
  viability at 48 h, 100 µM: < 30%
HCT116 cells [1]
  IC50: 18 ± 3 µM
other
  melting point: 168 °C

## O=[N+]([O-])c1ccc2c(c1)Oc1ccc3ccccc3c1C=C2 [Compound 2h, 9-nitrobenzo[b]naphtho[1,2-f]oxepine]
Normal cell lines
  activity in normal cell lines: severe activity
[4]
  anti-cancer activity compared with HTC116 cells: significantly more active
U87 (glioblastoma) cells
  anti-cancer activity compared with HTC116 cells: significantly more active
other
  melting point: 197 °C

## O=[N+]([O-])c1ccc2c(c1)Oc1cc(O)ccc1C=C2 [Compound 2i, 7-nitrodibenzo[b,f]oxepin-3-ol]
MCF-7 cells
  IC50: 67 ± 6 µM
HEK293 cells
  IC50: 88 ± 5 µM
HDF-A cells; [6]
  IC50: 93 ± 7 µM
[3]
  viability at 48 h, 100 µM: < 30%
HCT116 cells [1]
  IC50: 55 ± 4 µM
other
  melting point: 164 °C

## COc1cccc(O)c1/C=C/c1ccc([N+](=O)[O-])cc1[N+](=O)[O-]
other
  melting point: 212 °C

## COc1ccc2c(c1)C=Cc1ccc([N+](=O)[O-])cc1O2 [Compound 2d, 2-methoxy-7-nitrodibenzo[b,f]oxepine]
other
  melting point: 167 °C

## COc1ccc2c(c1)C=Cc1ccc(N)cc1O2 [Compound 3d, 8-methoxydibenzo[b,f]oxepin-3-amine]
other
  melting point: 158 °C

## COc1cc(O)c(/C=C/c2ccc([N+](=O)[O-])cc2[N+](=O)[O-])cc1OC [Compound 1f, (E)-2-hydroxy-4,5-dimethoxy-2′,4′-dinitrostilbene]
HCT116 cells [1]
  cell viability (in words): only minimally affected
other
  melting point: 221 °C

## Nc1ccc2c(c1)Oc1ccc3ccccc3c1C=C2 [Compound 3h, benzo[b]naphtho[1,2-f]oxepin-9-amine]
HEK293 cells
  IC50: 48 ± 3 µM
HDF-A cells; predicted IC50, above the maximum concentration tested (100 μM), read-out: HDF-A IC50 (predicted)
  IC50: > 100 µM
[3]
  viability at 48 h, 100 µM: < 30%
HCT116 cells [1]
  IC50: 66 ± 2 µM
other
  melting point: 172 °C

## COc1ccc(/C=C\c2cc(OC)c(OC)c(OC)c2)cc1OP(=O)(O)O [CA4P/fosbretabulin, combretastatin A-4 phosphate]
[5]
  side effect: acute but transient hypertension

## COc1ccc(/C=C/c2ccc([N+](=O)[O-])cc2[N+](=O)[O-])c(O)c1 [Compound 1c, (E)-2-hydroxy-4-methoxy-2′,4′-dinitrostilbene]
MCF-7 cells
  IC50: 43 ± 2 µM
HEK293 cells
  IC50: 34 ± 4 µM
HDF-A cells; [6]
  IC50: 40 ± 4 µM
[3]
  viability at 48 h, 100 µM: < 30%
HCT116 cells [1]
  IC50: 38 ± 5 µM

## COc1cccc(/C=C/c2ccc([N+](=O)[O-])cc2[N+](=O)[O-])c1O [Compound 1b, (E)-2-hydroxy-3-methoxy-2′,4′-dinitrostilbene]
HCT116 cells [1]
  cell viability (in words): only minimally affected
other
  melting point: 182 °C

## CC(=O)Oc1ccc2c(c1)Oc1cc(N)ccc1C=C2 [Compound 3j, 7-aminodibenzo[b,f]oxepin-3-yl acetate]
other
  melting point: 145 °C

## CC(=O)Oc1ccc2c(c1)Oc1cc([N+](=O)[O-])ccc1C=C2 [Compound 2j, 7-nitrodibenzo[b,f]oxepin-3-yl acetate]
MCF-7 cells
  IC50: 36 ± 3 µM
HEK293 cells
  IC50: 85 ± 4 µM
[3]
  viability at 48 h, 100 µM: < 30%
HCT116 cells [1]
  IC50: 53 ± 3 µM
other
  melting point: 133 °C

## O=[N+]([O-])c1ccc2c(c1)C=Cc1ccc([N+](=O)[O-])cc1O2
other
  melting point: 216 °C

## COc1cccc2c1Oc1cc([N+](=O)[O-])ccc1C=C2 [Compound 2b, 6-methoxy-3-nitrodibenzo[b,f]oxepine]
HCT116 cells [1]
  cell viability (in words): only minimally affected
other
  melting point: 184 °C

## COc1cc2c(cc1OC)Oc1cc([N+](=O)[O-])ccc1C=C2 [Compound 2f, 2,3-dimethoxy-7-nitrodibenzo[b,f]oxepine]
HCT116 cells [1]
  cell viability (in words): only minimally affected

## O=[N+]([O-])c1ccc(/C=C/c2ccc(O)cc2O)c([N+](=O)[O-])c1 [Compound 1i, (E)-2,4-dihydroxy-2′,4′-dinitrostilbene]
MCF-7 cells
  IC50: 69 ± 3 µM
HEK293 cells
  IC50: 54 ± 2 µM
HDF-A cells; [6]
  IC50: 41 ± 2 µM
[3]
  viability at 48 h, 100 µM: < 30%
HCT116 cells [1]
  IC50: 52 ± 2 µM
other
  melting point: 201 °C

## O=[N+]([O-])c1ccc(/C=C/c2ccccc2O)c([N+](=O)[O-])c1 [Compound 1a, (E)-2-hydroxy-2′,4′-dinitrostilbene]
MCF-7 cells
  IC50: 36 ± 2 µM
HEK293 cells
  IC50: 18 ± 1 µM
HDF-A cells; [6]
  IC50: 38 ± 1 µM
[3]
  viability at 48 h, 100 µM: < 30%
HCT116 cells [1]
  IC50: 23 ± 1 µM
other
  melting point: 192 °C
